Experimental data: the supplement of paper PMC10307832

Columns and labels:
Experiment in all cases: relative viability (nuclei count vs DMSO), 5 days (fraction); higher = more cells survive
Serdemetan + Palbociclib = compound: c1ccc2c(CCNc3ccc(Nc4ccncc4)cc3)c[nH]c2c1 [Serdemetan] + CC(=O)c1c(C)c2cnc(Nc3ccc(N4CCNCC4)cn3)nc2n(C2CCCC2)c1=O [Palbociclib] (partner 0.5 µM)
In short: (§1)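 Five library-drug doses in √10 steps were combined with a fixed anchor-drug dose, or a single drug was given alone, by pin tool to lung cancer cell lines in 1536-well plates the day after seeding. Nuclei were stained and counted after 5 days. Relative viability is the nuclei count in treated wells over that in vehicle wells, taken as the median of duplicate plates.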

Serdemetan + Dasatinib = compound: c1ccc2c(CCNc3ccc(Nc4ccncc4)cc3)c[nH]c2c1 [Serdemetan] + Cc1nc(Nc2ncc(C(=O)Nc3c(C)cccc3Cl)s2)cc(N2CCN(CCO)CC2)n1 [Dasatinib] (partner 0.075 µM)
In short: as §1

Selisistat + Bortezomib = compound: C1CC(C2=C(C1)C3=C(N2)C=CC(=C3)Cl)C(=O)N [Selisistat] + CC(C)C[C@H](NC(=O)[C@H](Cc1ccccc1)NC(=O)c1cnccn1)B(O)O [Bortezomib] (partner 0.002 µM)
In short: as §1

Selisistat + Linsitinib = compound: C1CC(C2=C(C1)C3=C(N2)C=CC(=C3)Cl)C(=O)N [Selisistat] + C[C@]1(O)C[C@@H](c2nc(-c3ccc4ccc(-c5ccccc5)nc4c3)c3c(N)nccn32)C1 [Linsitinib] (partner 1 µM)
In short: as §1

Cell Line	relative viability (Serdemetan + Palbociclib; first compound 0.04 µM)	relative viability (Serdemetan + Palbociclib; first compound 0.1265 µM)	relative viability (Serdemetan + Palbociclib; first compound 0.4 µM)	relative viability (Serdemetan + Palbociclib; first compound 1.265 µM)	relative viability (Serdemetan + Palbociclib; first compound 4 µM)	relative viability (Serdemetan + Dasatinib; first compound 0.04 µM)	relative viability (Serdemetan + Dasatinib; first compound 0.1265 µM)	relative viability (Serdemetan + Dasatinib; first compound 0.4 µM)	relative viability (Serdemetan + Dasatinib; first compound 1.265 µM)	relative viability (Serdemetan + Dasatinib; first compound 4 µM)	relative viability (Selisistat + Bortezomib; first compound 0.4 µM)	relative viability (Selisistat + Bortezomib; first compound 1.265 µM)	relative viability (Selisistat + Bortezomib; first compound 4 µM)	relative viability (Selisistat + Bortezomib; first compound 12.65 µM)	relative viability (Selisistat + Bortezomib; first compound 40 µM)	relative viability (Selisistat + Linsitinib; first compound 0.4 µM)	relative viability (Selisistat + Linsitinib; first compound 1.265 µM)	relative viability (Selisistat + Linsitinib; first compound 4 µM)	relative viability (Selisistat + Linsitinib; first compound 12.65 µM)	relative viability (Selisistat + Linsitinib; first compound 40 µM)
201T	0.367	0.353	0.341	0.33	0.327	0.568	0.508	0.546	0.449	0.464	1.13	1.08	1.1	1.11	1.08	1.08	1.02	0.998	0.967	1.06
A549	–	–	–	–	–	–	–	–	–	–	–	–	–	–	–	0.664	0.587	0.484	0.649	0.622
A-427	0.533	0.497	0.525	0.462	0.444	0.666	0.653	0.655	0.64	0.603	1.02	0.981	1.01	1.02	0.952	1.21	1.05	1.1	1.15	1.15
ABC-1	0.553	0.586	0.694	0.611	0.459	0.541	0.575	0.585	0.402	0.429	0.317	0.327	0.312	0.383	0.267	0.649	0.652	0.788	0.726	0.721
BEN	0.513	0.494	0.504	0.365	0.449	0.302	0.3	0.312	–	0.356	0.888	0.984	0.492	0.73	0.609	0.971	0.986	0.812	0.762	0.827
CAL-12T	0.467	0.422	0.35	0.424	0.539	0.392	0.516	0.429	0.456	0.292	0.992	1.12	–	0.768	0.983	0.85	0.799	0.82	0.784	0.862
COR-L23	0.235	0.3	0.349	0.213	0.236	0.46	0.468	0.41	0.379	0.452	0.981	1.02	1.09	0.829	0.863	1.04	0.872	1.04	0.899	0.876
COR-L 105	0.4	0.403	0.359	0.297	0.411	0.326	0.351	0.306	0.319	0.337	0.772	0.868	0.493	0.725	0.72	0.755	0.918	0.933	1.02	0.914
Calu-6	–	–	–	–	–	–	–	–	–	–	0.998	0.961	0.992	0.902	0.932	0.932	0.964	0.981	0.975	0.939
ChaGo-K-1	0.864	0.746	0.488	0.271	0.296	0.587	0.562	0.572	0.249	0.24	0.972	1.03	–	0.917	0.821	–	–	–	–	–
EBC-1	–	–	–	–	–	–	–	–	–	–	0.611	0.551	0.673	0.494	0.486	0.92	0.899	0.892	0.8	0.844
EKVX	0.456	0.374	–	–	0.282	0.523	0.645	–	0.355	0.371	1	1	0.671	0.84	1.04	1.14	0.982	0.983	0.914	0.939
EMC-BAC-2	0.508	0.523	0.493	0.479	0.463	0.304	0.358	0.344	0.268	0.293	1.08	1.05	1.01	1.05	1.04	0.87	0.787	0.777	0.753	0.813
EPLC-272H	0.337	0.329	0.33	0.256	0.3	0.42	0.397	0.389	0.29	0.418	0.933	0.985	–	0.859	0.893	1.24	1.2	–	1	1.2
H3255	0.327	0.333	0.346	0.286	0.342	0.422	0.384	0.258	0.323	0.431	0.811	0.61	0.536	0.796	0.883	0.946	0.843	0.973	0.827	0.938
HARA	0.269	0.264	0.228	0.236	0.223	0.336	0.28	0.235	0.185	0.178	1.12	1.19	1.14	1.15	1.06	0.938	0.917	0.854	0.844	0.983
HCC-15	0.697	0.757	0.668	0.56	0.556	0.676	0.608	0.562	0.541	0.49	1.09	1.03	–	1.04	1.29	1.03	0.918	–	0.902	0.696
HCC-44	0.927	0.93	0.953	0.92	0.922	–	–	–	–	–	0.857	0.908	1.02	0.926	0.952	0.707	0.698	0.669	0.662	0.753
HCC-78	0.449	0.391	0.494	0.437	0.47	0.408	0.316	0.331	0.307	0.299	0.515	0.471	–	0.489	0.514	0.571	0.483	0.553	0.537	0.437
HCC-366	0.351	0.281	0.0795	0.0413	0.0782	0.637	0.472	0.542	0.0442	0.155	1.07	1.02	0.955	0.98	1.02	0.808	0.582	0.336	0.577	0.618
HCC-827	0.454	0.448	–	0.412	0.303	0.372	0.231	–	0.229	0.138	1.06	1.04	0.994	0.886	0.951	0.873	0.873	0.941	0.948	1.01

Cell Line	relative viability (Serdemetan + Palbociclib; first compound 0.04 µM)	relative viability (Serdemetan + Palbociclib; first compound 0.1265 µM)	relative viability (Serdemetan + Palbociclib; first compound 0.4 µM)	relative viability (Serdemetan + Palbociclib; first compound 1.265 µM)	relative viability (Serdemetan + Palbociclib; first compound 4 µM)	relative viability (Serdemetan + Dasatinib; first compound 0.04 µM)	relative viability (Serdemetan + Dasatinib; first compound 0.1265 µM)	relative viability (Serdemetan + Dasatinib; first compound 0.4 µM)	relative viability (Serdemetan + Dasatinib; first compound 1.265 µM)	relative viability (Serdemetan + Dasatinib; first compound 4 µM)	relative viability (Selisistat + Bortezomib; first compound 0.4 µM)	relative viability (Selisistat + Bortezomib; first compound 1.265 µM)	relative viability (Selisistat + Bortezomib; first compound 4 µM)	relative viability (Selisistat + Bortezomib; first compound 12.65 µM)	relative viability (Selisistat + Bortezomib; first compound 40 µM)	relative viability (Selisistat + Linsitinib; first compound 0.4 µM)	relative viability (Selisistat + Linsitinib; first compound 1.265 µM)	relative viability (Selisistat + Linsitinib; first compound 4 µM)	relative viability (Selisistat + Linsitinib; first compound 12.65 µM)	relative viability (Selisistat + Linsitinib; first compound 40 µM)
HOP-62	0.466	0.469	0.545	0.3	0.209	0.561	0.625	0.636	0.538	0.567	0.837	1.08	0.867	0.624	0.883	1.04	1.18	1.07	0.978	0.94
IA-LM	–	–	–	–	–	–	–	–	–	–	0.867	0.735	0.758	0.682	0.881	0.632	0.581	0.436	0.4	0.694
LC-2-ad	0.438	0.449	0.507	0.471	0.44	0.495	0.634	0.519	0.501	0.475	1	1.02	1.03	0.985	1.05	0.88	0.846	0.867	0.808	0.856
LCLC-97TM1	0.228	0.224	0.22	0.134	0.16	0.824	0.971	0.823	–	0.748	0.696	0.77	–	0.555	0.553	0.166	0.156	0.193	0.167	0.245
LK-2	0.69	0.704	0.778	0.517	0.496	0.315	0.269	0.334	0.233	0.379	–	–	–	–	–	0.265	0.437	0.341	0.519	0.619
NCI-H358	0.134	0.135	0.132	0.122	0.117	0.185	0.167	0.161	0.146	0.17	–	–	–	–	–	0.722	0.726	–	0.687	0.68
NCI-H522	1.01	0.954	0.899	0.681	0.856	0.807	0.844	0.911	–	0.946	–	–	–	–	–	–	–	–	–	–
NCI-H596	–	–	–	–	–	0.677	0.637	0.645	0.565	0.522	1.01	0.105	0.817	0.947	1	1	1.11	1.03	1.23	0.999
NCI-H1299	–	–	–	–	–	–	–	–	–	–	1.07	1.07	1.05	1.03	1.02	1.06	1.01	0.996	0.974	0.991
NCI-H1395	0.605	0.643	0.626	0.555	0.436	0.396	0.42	0.481	0.406	0.281	–	–	–	–	–	1.16	1.28	1.02	1	0.521
NCI-H1563	–	–	–	–	–	0.496	0.466	0.452	0.457	0.461	0.855	0.753	0.752	0.789	0.581	1.08	1.15	1.17	1.07	0.83
NCI-H1623	–	–	–	–	–	0.549	0.628	0.359	0.442	0.562	–	–	–	–	–	–	–	–	–	–
NCI-H1648	–	0.233	0.242	0.219	0.212	–	–	–	–	–	–	–	–	–	–	–	–	–	–	–
NCI-H1650	0.318	0.275	0.282	0.257	0.262	0.297	0.345	0.272	0.34	0.268	0.281	0.205	0.222	0.202	0.22	–	–	–	–	–
NCI-H1703	–	–	–	–	–	–	–	–	–	–	0.293	0.286	0.301	0.266	0.332	0.316	0.703	0.627	0.724	0.932
NCI-H1793	0.355	0.325	0.308	0.242	0.271	0.355	0.308	0.383	0.21	0.259	–	–	–	–	–	0.977	0.822	–	1.01	1.17
NCI-H1944	0.364	0.355	0.31	0.253	0.221	0.201	0.212	0.218	0.131	0.164	–	–	–	–	–	1.15	1.17	–	1.21	1.18
NCI-H2170	0.362	0.428	0.411	0.301	0.382	0.437	0.612	0.474	0.513	0.569	–	–	–	–	–	–	–	–	–	–
NCI-H2342	0.528	0.494	0.508	0.481	0.489	0.309	0.302	0.291	0.28	0.301	–	–	–	–	–	–	–	–	–	–
SK-MES-1	0.271	0.309	0.285	0.302	0.325	0.337	0.378	0.327	0.379	0.267	–	–	–	–	–	1.11	1.04	0.955	1.05	1.01
SW 900	0.615	0.58	0.59	0.451	0.361	0.502	0.471	0.484	0.385	0.345	–	–	–	–	–	–	–	–	–	–
